Laboratory results: publication PMC12648656, “Palladium(II) Complexes with Noncovalent Interactions with DNA: Solution Speciation Controlled by Solvent Identity, pH, and Concentration” (Inorganic Chemistry, 2025)

How the values were obtained:
[1] = Spectrophotometric (UV-vis) pH titrations for proton dissociation constants; assay type: physicochemical; conditions: 60% (v/v) DMSO/H2O
Protocol: Spectrophotometric titrations were applied to study the equilibrium processes (proton dissociation and complex dissociation/formation) in DMSO/H2O mixtures due to the limited aqueous solubility of the compounds. The calibration of the electrode system was performed by strong acid–strong base pH-potentiometric titrations in 30% (v/v) and 60% (v/v) DMSO/H2O solvent mixtures at 25.0 ± 0.1 °C as described in our previous works. , KCl (0.1 M) was the supporting electrolyte to maintain constant ionic strength, which refers to the chloride ion concentration in blood plasma. […] The initial sample volume was 5 mL. Spectrophotometric titrations were performed in the pH range 1.8–12.5 for 30% (v/v) DMSO/H2O medium and 1.8–14.0 for 60% (v/v) DMSO/H2O medium. Prior to the titrations, purified argon was passed through the samples for approximately 10 min to remove CO2 traces, and argon was also passed over the samples during these measurements. The proton dissociation constants were calculated by using the computer program PSEQUAD.

[2] = test system: Enterococcus faecalis (ATCC 29212); experiment: Antibacterial MIC, broth dilution; assay type: cell-based; conditions: E. faecalis, 18 h, 37 °C
Protocol: (§1) Antibacterial activity was determined for the title compounds in various Gram-negative and Gram-positive bacterial strains, namely Klebsiella pneumoniae, Escherichia coli (ATCC 25922), Staphylococcus aureus (272123), methicillin-resistant Staphylococcus aureus (ATCC 43300), and Enterococcus faecalis (ATCC 29212). The stock solutions of the tested compounds were prepared in DMSO at a 5 mM concentration. […] All stock solutions were diluted in 100 μL of Mueller Hinton Broth, and then two-fold serial dilutions were performed. Then, a 10^–4 dilution of an overnight bacterial culture in 100 μL of medium was added to each well, except for the medium control wells. The highest concentration of the compounds in the tested samples was 100 μM. The plates were incubated at 37 °C for 18 h. After that, the MIC values were determined by visual inspection.

[3] = test system: Escherichia coli (ATCC 25922); experiment: Antibacterial MIC, broth dilution; assay type: cell-based; conditions: E. coli, 18 h, 37 °C
Protocol: as §1

Klebsiella pneumoniae = experiment: Antibacterial MIC, broth dilution; assay type: cell-based; conditions: K. pneumoniae, 18 h, 37 °C
Protocol: as §1

[4] = test system: Staphylococcus aureus (272123); experiment: Antibacterial MIC, broth dilution; assay type: cell-based; conditions: S. aureus, 18 h, 37 °C
Protocol: as §1

[5] = test system: methicillin-resistant Staphylococcus aureus (ATCC 43300); experiment: microbe, parasite or virus in culture; assay type: cell-based; conditions: S. aureus (MRSA), 18 h, 37 °C
Protocol: as §1

[6] = Stability in physiological buffers (Tris, phosphate, HEPES) by UV-vis; assay type: physicochemical
Protocol: The reaction of the metal complexes (2) and (3) with buffer components was followed in an array of DMSO percentages, from 1% to 60% (v/v) DMSO/H2O (pH 7.4) medium. The samples were prepared by dilution of the stock solution of the respective complex in DMSO (5 mM) with 5 mM Tris 1% (v/v) DMSO/H2O or 5 mM phosphate buffers 60% (v/v) DMSO/H2O (pH 7.40 in both cases), reaching a final concentration of 10^–6 to 10^–4 M. The UV–vis spectra of the final samples were followed over time at 37 °C for up to 24 h.

[7] = Stability and DMSO coordination in DMSO by 1H NMR; assay type: physicochemical
Protocol: (a) Complex (2) solutions in DMSO (D2O) investigated by NMR spectroscopy: Trying to investigate if the higher concentration is responsible for the complex transformation process in DMSO, we monitored the solution of complex (2) at 0.5 and 1 mM by ^1H NMR spectroscopy (Figure a). We could clearly see that complex (2) is only detected pure at a concentration of 0.5 mM.
NMR spectra were recorded at room temperature, using a two-channel 300 MHz Bruker Avance III-HD Nanobay spectrometer equipped with a 5 mm BBO 1H/X probe and Z gradients, located at the Interdepartmental Investigation Service (SIdI). DMSO-d 6 was used as the solvent (containing 0.05% (v/v) tetramethylsilane (TMS) as a reference). Chemical shift values are given in parts per million relative to the residual TMS signals. The following abbreviations were used: s (singlet), d (doublet), and m (multiplet). Elemental analyses were performed on a LECO CHNS-932 elemental analyzer located at SIdI. Mass spectra were recorded using FAB (fast atom bombardment) in a Waters VG AutoSpec mass spectrometry unit and using MALDI (matrix-assisted laser desorption/ionization) with a Bruker Ultraflex III (MALDI-TOF/TOF) mass spectrometry unit, both located at SIdI. Infrared (IR) spectra were recorded using a PerkinElmer Model 283 spectrometer with an attenuated total reflectance (ATR) MIRacle Single Reflection Horizontal accessory and equipped with CsI optical windows for spectra between 600 and 200 cm^–1 in Nujol mull preparations. Absorbance spectra were recorded using a Thermo Evolution 220 spectrophotometer to record the UV–visible region, equipped with temperature control within ±0.1 °C. Viscosity measurements were performed using an A&D SV-1A vibro viscometer. HPLC analyses were carried out utilizing a 1200 Infinity series HPLC system provided by Agilent Technologies coupled to a photodiode array detector.

pBR322 plasmid DNA = experiment: Agarose gel electrophoresis mobility shift; assay type: binding; conditions: r i 0.01 to 0.20, 24 h, 37 °C
Protocol: Complexes (2) and (3) were incubated at 37 °C with a concentration of 0.0625 μg/μL pBR322 plasmid DNA at different concentrations expressed as r i = complex:DNA (base pair) ratio. The r i used was from 0.01 to 0.20, in a total volume of 20 μL. After an incubation period of 24 h, the mobility of the complex-treated pBR322 samples was analyzed by gel electrophoresis at 70 V in Tris/acetate/EDTA buffer. A control of pBR322 was also incubated, and a 1 kb ladder aliquot was loaded into lane 1 of the gel. The gel was stained with an ethidium bromide aqueous solution, and DNA bands were visualized with a UV-transilluminator UVITEC Cambridge UVIDOC HD2 instrument. The studies were performed with 3% (v/v) DMSO as the final solution.

## Clc1ccc(N=C2N[N+](=Cc3c[nH]cn3)[Pd-2]3([S]C(Nc4ccc(Cl)cc4)=N[N+]3=Cc3c[nH]cn3)[S]2)cc1 (stereo not shown) [(2), Bis(1H-imidazole-4-carboxaldehyde-4N-p-chlorophenylthiosemicarbazonato)palladium(II)]
[1]; I = 0.10 M (KCl), 25.0 °C
  pKa1: 2.97 ± 0.02
  pKa2: 8.40 ± 0.02
  pKa3: 11.31 ± 0.01
[1]; same medium
  reduction of proton dissociation constant of step I compared to the ligand: 0.8 logarithm units
  reduction of proton dissociation constant of step II compared to the ligand: 2.7 logarithm units
[2]
  MIC: > 100 µM
[3]
  MIC: > 100 µM
Klebsiella pneumoniae
  MIC: > 100 µM
[4]
  MIC: > 100 µM
[5]
  MIC: > 100 µM
[6]; HEPES, pH 7.4, 0.1 M chloride, 60% DMSO
  behaviour in HEPES buffer: formed precipitation
[6]; Tris buffer containing 3% (v/v) DMSO, pH 7.4, 20.0 μM
  time stable in solution, no precipitation: up to 24 h
[6]; Tris buffer, 60% DMSO
  stability after 24 h: decreased the stability
[6]; pH 7.4, 0.1 M chloride, 3% (v/v) DMSO
  behaviour in phosphate buffer: precipitated
[6]; pH 7.4, 0.1 M chloride, 60% (v/v) DMSO, first 10 h
  behaviour in phosphate buffer: major structural changes
[7]; 0.5 mM
  molar fraction of DMSO-coordinated species (complex (3)) formed: 0%
[7]; 3 mM, does not increase over 24 h
  molar fraction of DMSO-coordinated species (complex (3)) formed: 8%
[7]; in DMSO
  time 1H NMR spectrum remains stable: up to 24 h
pBR322 plasmid DNA
  effect on electrophoretic mobility of supercoiled pBR322 (pure form): small unwinding
